PMC2691833 (Nucleic Acids Research, 2009)

Molecular target: T1, EcoR124I holoenzyme (Escherichia coli, UniProt P10486)
T1 sequence (P10486 1-1038): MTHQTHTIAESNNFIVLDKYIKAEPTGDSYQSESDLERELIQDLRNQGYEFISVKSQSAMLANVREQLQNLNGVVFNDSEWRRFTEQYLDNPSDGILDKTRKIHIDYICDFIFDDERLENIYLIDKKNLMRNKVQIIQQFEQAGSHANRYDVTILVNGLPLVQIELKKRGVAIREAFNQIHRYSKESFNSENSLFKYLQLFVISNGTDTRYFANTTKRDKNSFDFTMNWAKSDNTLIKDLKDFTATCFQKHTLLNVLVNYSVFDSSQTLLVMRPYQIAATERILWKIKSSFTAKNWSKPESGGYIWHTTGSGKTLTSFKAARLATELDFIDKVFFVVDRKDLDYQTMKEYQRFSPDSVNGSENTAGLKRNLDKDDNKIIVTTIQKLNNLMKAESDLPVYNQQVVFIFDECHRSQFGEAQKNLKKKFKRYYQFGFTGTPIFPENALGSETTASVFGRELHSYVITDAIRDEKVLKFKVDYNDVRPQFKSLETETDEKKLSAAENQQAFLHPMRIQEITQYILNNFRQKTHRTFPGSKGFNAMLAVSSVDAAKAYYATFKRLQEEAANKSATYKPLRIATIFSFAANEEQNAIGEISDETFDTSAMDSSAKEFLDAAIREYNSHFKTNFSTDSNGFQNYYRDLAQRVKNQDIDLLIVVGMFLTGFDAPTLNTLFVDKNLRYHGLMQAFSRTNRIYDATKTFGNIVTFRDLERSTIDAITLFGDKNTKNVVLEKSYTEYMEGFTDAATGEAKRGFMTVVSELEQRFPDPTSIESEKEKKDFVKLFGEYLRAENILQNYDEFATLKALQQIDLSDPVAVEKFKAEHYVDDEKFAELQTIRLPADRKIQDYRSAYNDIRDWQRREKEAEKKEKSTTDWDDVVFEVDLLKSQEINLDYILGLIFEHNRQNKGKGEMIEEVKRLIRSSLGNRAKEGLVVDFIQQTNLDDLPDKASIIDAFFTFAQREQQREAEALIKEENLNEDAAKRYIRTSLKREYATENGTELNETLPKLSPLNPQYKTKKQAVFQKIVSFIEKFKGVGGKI
T1 sequence (P10484 1-520 partner): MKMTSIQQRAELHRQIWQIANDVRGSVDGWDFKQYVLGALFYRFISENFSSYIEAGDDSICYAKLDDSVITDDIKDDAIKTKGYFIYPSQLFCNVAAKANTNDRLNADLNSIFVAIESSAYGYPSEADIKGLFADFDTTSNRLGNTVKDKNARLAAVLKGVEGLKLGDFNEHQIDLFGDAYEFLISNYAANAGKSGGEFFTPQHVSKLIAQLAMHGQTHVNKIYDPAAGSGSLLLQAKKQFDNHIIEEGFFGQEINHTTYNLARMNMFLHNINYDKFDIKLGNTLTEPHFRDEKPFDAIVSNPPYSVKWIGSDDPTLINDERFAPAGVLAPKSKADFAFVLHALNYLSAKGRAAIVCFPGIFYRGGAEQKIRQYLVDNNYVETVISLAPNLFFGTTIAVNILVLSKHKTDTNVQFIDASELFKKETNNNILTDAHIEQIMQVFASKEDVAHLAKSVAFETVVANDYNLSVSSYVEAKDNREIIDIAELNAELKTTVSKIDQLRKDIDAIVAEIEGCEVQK
T1 sequence (P10485 1-404 partner): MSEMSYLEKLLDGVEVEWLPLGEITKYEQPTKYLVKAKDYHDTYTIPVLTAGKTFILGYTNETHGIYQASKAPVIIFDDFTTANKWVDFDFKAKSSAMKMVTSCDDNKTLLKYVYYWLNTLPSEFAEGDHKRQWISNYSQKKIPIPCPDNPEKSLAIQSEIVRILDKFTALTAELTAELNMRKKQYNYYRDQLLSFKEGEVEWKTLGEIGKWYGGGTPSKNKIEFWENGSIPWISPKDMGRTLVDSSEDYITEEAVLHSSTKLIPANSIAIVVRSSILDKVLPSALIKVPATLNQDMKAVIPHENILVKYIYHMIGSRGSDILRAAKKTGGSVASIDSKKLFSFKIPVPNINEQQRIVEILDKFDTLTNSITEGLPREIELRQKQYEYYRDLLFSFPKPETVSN
Conditions: 1 mM ATP, 5 mM Mg(OAc)2, negatively supercoiled R+- or 2R+-DNA, pH 7.5, 25 °C

## Nc1ncnc2c1ncn2[C@@H]1O[C@H](COP(=O)(O)OP(=O)(O)OP(=O)(O)O)[C@@H](O)[C@H]1O [ATP]
  continuous coupled spectrophotometric ATPase assay: as total protein concentration increases, the initial rates of ATP hydrolysis increase accordingly
